From article PMC6934184, “Selective DNA-PKcs inhibition extends the therapeutic index of localized radiotherapy and chemotherapy” (The Journal of Clinical Investigation, 2019) come the findings set out here.

The target in this assay is T1, MARK1 (MARK) (Homo sapiens, UniProt Q9P0L2).
T1 construct: purchased Thermo Fisher Scientific (Life Technologies) SelectScreen
Description: SelectScreen Z'LYTE. It is filed as biochemical. Put shortly: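 SelectScreen broad panel; activity (Z'LYTE, Adapta) plus binding formats. ATP: Km app for CSF1R Z'LYTE; 10 for CAMK1 Adapta. Readout = % per kinase.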

T1 sequence (Q9P0L2 whole entry): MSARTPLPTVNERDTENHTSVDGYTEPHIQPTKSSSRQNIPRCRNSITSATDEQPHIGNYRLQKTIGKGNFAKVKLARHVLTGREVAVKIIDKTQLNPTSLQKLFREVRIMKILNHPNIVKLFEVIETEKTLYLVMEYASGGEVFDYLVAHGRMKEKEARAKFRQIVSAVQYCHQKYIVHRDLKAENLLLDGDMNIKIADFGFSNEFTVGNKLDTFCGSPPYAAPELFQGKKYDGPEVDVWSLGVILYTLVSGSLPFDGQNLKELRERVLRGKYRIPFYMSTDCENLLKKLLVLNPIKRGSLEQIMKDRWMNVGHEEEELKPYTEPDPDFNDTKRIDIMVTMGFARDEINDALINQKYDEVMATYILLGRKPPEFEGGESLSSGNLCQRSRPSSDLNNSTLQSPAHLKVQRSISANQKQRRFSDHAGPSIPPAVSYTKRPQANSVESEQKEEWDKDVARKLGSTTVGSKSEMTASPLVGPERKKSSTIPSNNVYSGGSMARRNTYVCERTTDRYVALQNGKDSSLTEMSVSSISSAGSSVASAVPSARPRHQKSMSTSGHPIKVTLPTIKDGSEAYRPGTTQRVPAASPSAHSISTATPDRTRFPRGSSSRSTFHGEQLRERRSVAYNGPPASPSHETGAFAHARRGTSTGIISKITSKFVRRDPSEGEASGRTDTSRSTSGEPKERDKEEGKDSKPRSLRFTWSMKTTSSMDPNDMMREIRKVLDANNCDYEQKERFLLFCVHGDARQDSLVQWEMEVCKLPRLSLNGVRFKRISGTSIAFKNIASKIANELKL

In general, inhibition refers to the relative decrease from the control value, in per cent. Read a high inhibition as a response far below the control. `CN(C(=O)CN1CCOCC1)c1ccc2sc3c(-c4cccc5c(=O)cc(N6CC7CCC(C6)O7)oc45)cccc3c2c1` [NU5455] had an inhibition at 1 µM of 5.1%.
